Experimental data from patent publication US20030064954A1, “Cationic amphiphilic 1,4-dihydropyridine derivatives useful for delivery of nucleotide containing compounds” (priority 2000, published 2003).

Assays:
[1] = tested on: CV-1P (African monkey green kidney fibroblasts cells); assay: In vitro transfection of plasmid DNA, β-galactosidase activity per well; format: cell-based; conditions: CVI-P
Method: Transfer of plasmid DNA by various compounds was investigated by using CV-1P (African monkey green kidney fibroblasts cells) and D407 (human retinal pigment epithelial) cells.
The cells were cultured in Dulbecco's modified Eagle's medium (DMEM, Gibco), supplemented with 10% fetal bovine serum (FBS), penicillin/streptomycin (100 units/ml and 100 μg/ml respectively) and 2 mM L-glutamine for D 407 cell line. Cell cultures were maintained at 37° C. in a 7% CO2/air incubator. The cells were collected, counted and seeded in growth medium (100 μl) into 96-well culture plate, 20 000 cells per well. One day later the medium was replaced with fresh medium without serum (150 μl)
In the case of confluent CV1-P cells the medium (with of without serum) was changed on fourth day of cell growth before the transfection.
The complexes at different derivative/DNA charge ratios for transfection procedure were prepared just before use in 50 mM MES—50 mM HEPES—75 mM NaCl buffer, pH 7.2 in separate 96 well plates. One hour after changing the serum-free medium with 10% serum the complexes were added to the cells at […]. Dose of DNA per well was 0.6 μg. After 5 h the complexes were removed, the cells were washed with PBS, and the normal growth medium was added. After 45 h of incubation at 37° C. the cells were lysed with 2% Triton X 100, twice deep frozen and the β-galactosidase activity in each well was determined spectrofotometrically with ELx800 automated microplate reader (Bio-Tex Instruments Inc., Winooski, Vt. USA) by monitoring the hydrolysis of o-nitrophenylgalactopyranoside (oNPG) at 405 nm. Purified β-galactosidase from E.coli was used to construct a standard curve and to calculate […] activity in the transfected cells. […] Transfection efficiencies are given as percentage in comparison to transfection efficiency of Lipofectin^R.

[2] = tested on: D407 (human retinal pigment epithelial) cells; assay: as above; format: cell-based; conditions: D 407
Method: The complexes at different derivative/DNA charge ratios for transfection procedure were prepared just before use in 50 mM MES—50 mM HEPES—75 mM NaCl buffer, pH 7.2 in separate 96 well plates. One hour after changing the serum-free medium with 10% serum the complexes were added to the cells at 370C. Dose of DNA per well was 0.6 μg. After 5 h the complexes were removed, the cells were washed with PBS, and the normal growth medium was added. After 45 h of incubation at 37° C. the cells were lysed with 2% Triton X 100, twice deep frozen and the β-galactosidase activity in each well was determined spectrofotometrically with ELx800 automated microplate reader (Bio-Tex Instruments Inc., Winooski, Vt. USA) by monitoring the hydrolysis of o-nitrophenylgalactopyranoside (oNPG) at 405 nm. Purified β-galactosidase from E.coli was used to construct a standard curve and to calculate 9-galactosidase activity in the transfected cells. […] Transfection efficiencies are given as percentage in comparison to transfection efficiency of Lipofectin^R.

[3] = tested on: D 407 cells; assay: Cytotoxicity of amphiphile/DNA complexes, percentage of survived cells; format: cell-based, human; parameters: concentration or dose not given beside the values
[4] = tested on: plasmid DNA; assay: DNA condensation/complexation, EtBr displacement assay; format: binding
Method: The ability of the cationic amphiphiles to condense DNA was assessed with an EtBr displacement assay. Briefly, in 96 well plates plasmid DNA (0.6 μg per well) was reacted with 0.002% EtBr in 20 mM HEPES—150 mM NaCl buffer, pH 7.4 and fluorescence intensity was measured at 530 nm (excitation) and 590 nm (emission). Intercalation of EtBr molecules between the base pairs of the DNA double helix results in increased fluorescence signal. Immediately thereafter, the cationic liposomes were added to form complexes at different +/−charge ratios and the quenching of fluorescence intensity of EtBr was monitored. Condensation of DNA upon complexation with liposomes results in the displacement of EtBr from DNA and in decreased fluorescence signal. Fluorescence was measured using FL 500 microplate fluorescence reader (Bio-Tek Instruments Inc., Winooski, Vt., USA).
The values are expressed as percentage of the maximum fluorescence signal when EtBr bound to DNA in the absence of an amphiphile. Each data point is from at least triplicate experiment ±S.D.

[5] = tested on: CVI-P cells; assay: Cytotoxicity of amphiphile/DNA complexes, percentage of survived cells
[6] = amphiphile/DNA +/− charge ratio 0.5
[7] = amphiphile/DNA +/− charge ratio 1
[8] = amphiphile/DNA +/− charge ratio 2
[9] = amphiphile/DNA +/− charge ratio 4
[10] = amphiphile/DNA +/− charge ratio 8

Row | SMILES | transfection efficiency [1, 6] | transfection efficiency [1, 7] | transfection efficiency [1, 8] | transfection efficiency [1, 9] | transfection efficiency [1, 10] | transfection efficiency [2, 6] | transfection efficiency [2, 7] | transfection efficiency [2, 8] | transfection efficiency [2, 9] | transfection efficiency [2, 10] | cytotoxicity as a percentage of survived cells [3, 6] | cytotoxicity as a percentage of survived cells [3, 7] | cytotoxicity as a percentage of survived cells [3, 8] | cytotoxicity as a percentage of survived cells [3, 9] | cytotoxicity as a percentage of survived cells [3, 10] | complexation, percentage of the maximum fluorescence signal when EtBr bound to DNA in the absence of an amphiphile [4, 6] | complexation, percentage of the maximum fluorescence signal when EtBr bound to DNA in the absence of an amphiphile [4, 7] | complexation, percentage of the maximum fluorescence signal when EtBr bound to DNA in the absence of an amphiphile [4, 8] | complexation, percentage of the maximum fluorescence signal when EtBr bound to DNA in the absence of an amphiphile [4, 9] | complexation, percentage of the maximum fluorescence signal when EtBr bound to DNA in the absence of an amphiphile [4, 10] | also measured
1 | CCCCCCCCCCCCOC(=O)C1=C(C)NC(C)=C(C(=O)OCCCCCCCCCCCC)C1c1ccc[n+](C)c1.I.[I-] [V, 3′,5′-Bis(dodecyloxycarbonyl)-1′,4′-dihydro-1,2′,6′-trimethyl-3,4′-bipyridinium iodide] | 0,48 β-galactosidase units per well | 0,69 β-galactosidase units per well | 27,19 β-galactosidase units per well | 5,95 β-galactosidase units per well | 1,4 β-galactosidase units per well | 0,26 β-galactosidase units per well | 8,10 β-galactosidase units per well | 8,78 β-galactosidase units per well | 0,55 β-galactosidase units per well | 0,33 β-galactosidase units per well | 85,27% | 66,05% | 55,61% | 9,14% | 0,28% | 88,8% | 80,33% | 75,17% | 71,93% | 72,4% | cytotoxicity as a percentage of survived cells [5, 6]: 100,21%; cytotoxicity as a percentage of survived cells [5, 7]: 87,18%; cytotoxicity as a percentage of survived cells [5, 8]: 71,79%; cytotoxicity as a percentage of survived cells [5, 9]: 40,55%; cytotoxicity as a percentage of survived cells [5, 10]: 8,67%
2 | CCCCCCCCCCCCCCOC(=O)C1=C(C[n+]2ccccc2)NC(C[n+]2ccccc2)=C(C(=O)OCCCCCCCCCCCCCC)C1c1ccccc1.[Br-].[Br-] [XXIV, 1,1′-{[1,4-Dihydro-4-phenyl-3,5-bis(tetradecyloxycarbonyl)-pyridine-2,6-diyl]dimethylene}bispyridinium dibromide] | 0,63 β-galactosidase units per well | 2,48 β-galactosidase units per well | 15,46 β-galactosidase units per well | 47,78 β-galactosidase units per well | 9,48 β-galactosidase units per well | 0,20 β-galactosidase units per well | 0,44 β-galactosidase units per well | 0,53 β-galactosidase units per well | 15,04 β-galactosidase units per well | 3,61 β-galactosidase units per well | 97,59% | 88,59% | 98,83% | 86,99% | 51,24% | 78,91% | 63,92% | 54,5% | 50,0% | 49,62% | cytotoxicity as a percentage of survived cells [5, 6]: 96,17%; cytotoxicity as a percentage of survived cells [5, 7]: 98,12%; cytotoxicity as a percentage of survived cells [5, 8]: 86,72%; cytotoxicity as a percentage of survived cells [5, 9]: 88,19%; cytotoxicity as a percentage of survived cells [5, 10]: 48,08%
